Data: patent US8067044B2, “Cosmetic compositions containing an extract of leaves of the Castanea sativa plant and cosmetic treatments” (Cognis France S.A.S., priority 2004, dated 2011)

Columns and labels:
[1] = Anti-DPPH test (free radical scavenging); conditions: average of 2 assays
Text: 1.2 Methods and principle of this experiment: The anti-free radical (anti-FR) activity has been evaluated by chemical tests for the evaluation of the potential to scavenge free radicals R (DPPH test) and hydroxyl radicals HO. The anti-FR activity has been evaluated also by biochemical tests to address the potential for scavenging of a kind of reactive oxygen species (ROS), the so called super oxide anion (O2). […] Xanthine oxydase (XOD) is an enzyme activated during oxidative stress, this enzyme catalyses the O2 release along the degradation of hypoxanthin (HX) which has been overproduced by a disruption of energetic cell metabolism. […] Principle: DPPH (diphenylpicryl-hydrazyl) is a stable free radical which forms a purple solution. The purple solution of DPPH^o has a whitening effect due to components that act as radical-scavengers. […] The results are expressed in percent inhibition of DPPH radical against control. The aim of this test is to show an anti-free radical activity.

[2] = tested on: Raphanus sativus seed germination; conditions: cited from earlier work
[3] = tested on: strains of Gram-positive and Gram-negative bacteria; conditions: same bacterial strains; cited from earlier work
B16 melanocytes = assay: Inhibition of melanin synthesis on B16 melanocytes; type: cell-based; conditions: for Rate of cellular proteins / Rate of melanin: control = 100; for rate of released melanin (comment): treated B16 melanocytes
Description: Aim of the experiment: to evaluate the potential of compounds to lower the melanin synthesis; the compounds have been tested on cell culture of melanocytes called B16.
• Seeding of melanocytes in growth medium • Incubation for 3 days at 37° C., CO2=5% (atmosphere: 5% carbon dioxide in air) • Exchange of the growth medium by a medium with a range of concentration of ingredients to be tested • Incubation for 3 days at 37° C., CO2=5% (atmosphere: 5% carbon dioxide in air) • Recording of Cellular levels of protein by Bradford's method • Recording of melanin by a spectrophotometric method (OD at 475 nm)

Lipoxygenase = assay: Inhibition test on lipoxygenase (superoxide anions, luminol); type: biochemical
Text: (§1) 1.2 Methods and principle of this experiment: The anti-free radical (anti-FR) activity has been evaluated by chemical tests for the evaluation of the potential to scavenge free radicals R (DPPH test) and hydroxyl radicals HO. The anti-FR activity has been evaluated also by biochemical tests to address the potential for scavenging of a kind of reactive oxygen species (ROS), the so called super oxide anion (O2). The O2 originates mainly from xanthine oxydase and lipoxygenase activities. Xanthine oxydase (XOD) is an enzyme activated during oxidative stress, this enzyme catalyses the O2 release along the degradation of hypoxanthin (HX) which has been overproduced by a disruption of energetic cell metabolism.
Lipoxygenase was incubated with a specific substrate (unsaturated fatty acid) and the ingredient to be tested. Then the rate of released superoxide anions was evaluated by a luminescent probe (luminol). Caffeic acid was tested as reference ingredient.

[4] = Anti-HO test with deoxyribose (Fenton's reaction), reaction with EDTA
Text: as §1
Principle: The hydroxyl radical HO— (formed by H2O2 in presence of Fe++ with EDTA) oxidises deoxyribose (a component of DNA), then a pink compound is formed by condensation of thiobarbituric acid with oxidised form of deoxyribose. The optical density at 532 nm corresponds to the level of oxidised deoxyribose. An anti-free radical substance reacts with these radicals HO— and reduces the formation of this pink compound.
(§2) The results are expressed in percent of inhibition of HO— radical against control. The aim of this test is to show an anti-free radical activity.

[5] = Anti-HO test with deoxyribose (Fenton's reaction), reaction without EDTA
Text: as §1
[…] The optical density at 532 nm corresponds to the level of oxidised deoxyribose. An anti-free radical substance reacts with these radicals HO— and reduces the formation of this pink compound.
as §2

Xanthine oxidase = Xanthine oxidase (Homo sapiens, UniProt P47989); assay: Inhibition test on xanthine oxidase (superoxide anion revealed by NBT); type: biochemical
Text: as §1
Xanthine oxydase is an enzyme induced during oxidative stress: it catabolises the puric bases (adenine, guanine) in uric acid and superoxide anions O2— dismutates spontaneously (or by the action of SOD=superoxyde dismutase) in H2O2 and O2.
A substance with an anti-free-radical-activity absorbs or destroys the O2— anion and thereby it reduces the optical density.
The results are expressed in percent of inhibition of O2— radical against control. The aim of this test is to show an anti-free radical activity.
As to the meaning of U/ml: for an enzyme, the dose is expressed in Units/ml for unity. In the other cases, it is not enzymes.

human fibroblasts = assay: Inhibition of UVA effect on human fibroblasts (released MDA); type: cell-based
Description: Aim of the experiment: Determination of the potential of the tested ingredient to reduce negative effects of UV-A radiation on the survival rate of human fibroblasts.
• Seeding of human fibroblasts in a growth medium • Incubation for 3 days at 37° C., CO2=5% (atmosphere: 5% carbon dioxide in air) • Exchange of the growth medium by a medium with a range of concentration of ingredients to be tested • Incubation for 2 days at 37° C., CO2=5% • Exchange of the medium with ingredients by a balanced salt solution and UV-A irradiation (20 J/cm^2) • Recording of released MDA levels by spectro-fluorimetry. (MDA (malonaldialdehyde) is a product of oxidative degradation of lipids from cell membranes)

Sequence of Xanthine oxidase (P47989 whole entry, species assumed): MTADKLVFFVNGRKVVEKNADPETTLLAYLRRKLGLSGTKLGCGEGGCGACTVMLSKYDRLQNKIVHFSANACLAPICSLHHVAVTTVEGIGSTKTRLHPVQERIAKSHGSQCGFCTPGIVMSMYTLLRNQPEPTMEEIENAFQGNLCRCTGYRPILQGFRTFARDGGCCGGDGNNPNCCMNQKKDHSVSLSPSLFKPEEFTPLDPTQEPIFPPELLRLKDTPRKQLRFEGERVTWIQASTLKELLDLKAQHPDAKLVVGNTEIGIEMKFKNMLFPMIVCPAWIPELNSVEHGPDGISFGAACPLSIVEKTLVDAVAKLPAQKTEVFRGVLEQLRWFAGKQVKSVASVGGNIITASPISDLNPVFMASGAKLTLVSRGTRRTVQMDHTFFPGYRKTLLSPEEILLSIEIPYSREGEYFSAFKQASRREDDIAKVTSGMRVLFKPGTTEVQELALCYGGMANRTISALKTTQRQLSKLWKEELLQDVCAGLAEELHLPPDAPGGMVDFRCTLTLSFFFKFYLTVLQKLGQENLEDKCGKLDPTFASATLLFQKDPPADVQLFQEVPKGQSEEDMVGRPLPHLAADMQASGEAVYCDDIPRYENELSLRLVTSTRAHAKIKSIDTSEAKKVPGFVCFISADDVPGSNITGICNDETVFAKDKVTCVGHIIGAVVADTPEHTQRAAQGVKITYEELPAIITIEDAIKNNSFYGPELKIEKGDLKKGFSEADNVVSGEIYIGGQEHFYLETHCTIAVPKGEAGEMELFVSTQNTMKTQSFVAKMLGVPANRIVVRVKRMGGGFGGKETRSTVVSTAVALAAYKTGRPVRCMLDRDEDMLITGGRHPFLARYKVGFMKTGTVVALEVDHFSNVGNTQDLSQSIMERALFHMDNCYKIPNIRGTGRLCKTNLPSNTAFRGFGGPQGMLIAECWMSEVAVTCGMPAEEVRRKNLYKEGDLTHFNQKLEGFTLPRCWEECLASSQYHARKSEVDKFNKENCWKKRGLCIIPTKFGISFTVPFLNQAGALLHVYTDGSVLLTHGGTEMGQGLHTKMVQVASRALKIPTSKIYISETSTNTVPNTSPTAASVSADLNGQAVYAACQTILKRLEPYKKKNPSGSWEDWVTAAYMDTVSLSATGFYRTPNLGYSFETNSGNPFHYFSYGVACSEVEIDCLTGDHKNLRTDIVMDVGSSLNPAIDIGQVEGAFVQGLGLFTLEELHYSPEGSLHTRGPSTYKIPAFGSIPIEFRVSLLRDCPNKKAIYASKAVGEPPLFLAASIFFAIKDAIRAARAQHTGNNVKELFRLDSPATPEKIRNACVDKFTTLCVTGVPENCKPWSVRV

With `O=C1O[C@H]([C@@H](O)CO)C(O)=C1O` [Vitamin C, ascorbic acid] the “% of inhibition of DPPH radical/control” value ([1]; 0.0003 % (w/v)) was 19%, the “% of inhibition of DPPH radical/control” value ([1]; 0.001 % (w/v)) was 58% and the “% of inhibition of DPPH radical/control” value ([1]; 0.003 % (w/v)) was 74%. For the same molecule, the “% of inhibition of DPPH radical/control” value ([1]; 0.01 % (w/v)) was 68%.
For `O=c1cc(-c2ccc(O)cc2)oc2cc(O)cc(O)c12` [apigenin], the “percentage of seed germination and root and epicotyl growth” value [2] is listed as “decrease” and the “antibacterial activity among standards of the identified flavonoids” value [3] is listed as “highest activity”.
With `OC[C@H]1O[C@@H](Oc2ccc(O)cc2)[C@H](O)[C@@H](O)[C@@H]1O` [arbutin] the “Rate of cellular proteins” value (B16 melanocytes; dose 0.2 % w/v) was 91 % against control, the Rate of melanin (B16 melanocytes; dose 0.2 % w/v) was 64 % against control and the “rate of released melanin (comment)” value (B16 melanocytes) was “strongly decreased”.
For `O=C(O)/C=C/c1ccc(O)c(O)c1` [caffeic acid], the “% of inhibition (lipoxygenase, released superoxide anions)” value (Lipoxygenase; 0.00002 % (w/v)) was 18% and the “% of inhibition (lipoxygenase, released superoxide anions)” value (Lipoxygenase; 0.0002 % (w/v)) was 53%.
With `O=c1cc(CO)occ1O` [kojic acid] the “Rate of cellular proteins” value (B16 melanocytes; dose 0.03 % w/v) was 109 % against control, the Rate of melanin (B16 melanocytes; dose 0.03 % w/v) was 32 % against control and the “rate of released melanin (comment)” value (B16 melanocytes) was “strongly decreased”.
In the case of `OC[C@@H](O)[C@@H](O)[C@H](O)[C@H](O)CO` [mannitol], the “% of inhibition of HO— radical/control” value ([4]; 0.06 % (w/v)) was 25% and the “% of inhibition of HO— radical/control” value ([4]; 0.6 % (w/v)) was 68%.
For `c1cnc2c(c1)ccc1cccnc12` [o-phenanthroline], the “% of inhibition of HO— radical/control” value ([5]; 0.02 % (w/v)) was 42% and the “% of inhibition of HO— radical/control” value ([5]; 0.06 % (w/v)) was 71%.
For `O=c1c(O)c(-c2ccc(O)c(O)c2)oc2cc(O)cc(O)c12` [quercetin], the “percentage of seed germination and root and epicotyl growth” value [2] is listed as “decrease” and the “antibacterial activity among standards of the identified flavonoids” value [3] is listed as “highest activity”.
In the case of “SOD: superoxyde dismutase, enzyme used as reference, dosed in U/ml”, the “% of inhibition of O2— radical against control” value (from here on “% of inhibition of O2— radical”) (Xanthine oxidase; 0.5 U/ml) was 18%, the “% of inhibition of O2— radical” value (Xanthine oxidase; 5 U/ml) was 50% and the “% of inhibition of O2— radical” value (Xanthine oxidase; 50 U/ml) was 95%. For the same molecule, the IC50 (Xanthine oxidase; enzyme reference, Units/ml) was 5 U/ml.
For Vitamin E, the “rate of released MDA from UV-A irradiated fibroblasts (comment)” value (human fibroblasts; UV-A irradiated human fibroblasts) was “strongly decreased” and the “Rate of released MDA” value (human fibroblasts; dose 0.0003 % w/v, UV-A 20 J/cm2 (irradiated control = 100)) was 7 % against control.
